Results on one compound are retold here after patent publication US11730714B2, “Compounds for the treatment of neuromuscular disorders” (NMD PHARMA A/S, priority 2017, dated 2023).

For experiment [1], the system named is isolated rat soleus muscles. The experiment can be described thus: Recovery of nerve-stimulated force in isolated rat soleus muscles exposed to 3.5 mM Mg2+. In kind it is cell-based. To be noted: 3.5 mM Mg2+, after 70 min at elevated Mg2+. The method, then:
Experiments were performed using rat soleus muscles from either young (4-wk-old) or adult Wistar rats (12-14-week-old). Animal handling, killing and isolation of muscle is described elsewhere All experiments were performed using normal Krebs-Ringer bicarbonate solution (NKR). In solutions with elevated Mg^2+, MgCl2 was added to NKR-solution causing minor increases in osmolarity and ionic strength. In solutions with elevated K^+, 4 mM NaCl was replaced by 4 mM KCl in the NKR.
The aim was to find compounds that by inhibition of CIC-1 channels can recover nerve-stimulated force under conditions of fatigue including conditions where fatigue is caused by compromised neuromuscular transmission. Neuromuscular transmission dysfunction can develop because of both pre- and/or post-synaptic complications in connection with a disorder or as part of neuromuscular blockade during/after surgery. In the initial series of drug testing, experiments were performed with isolated muscles in the presence of sub-maximal ACh receptor antagonist tubocurarine. […] To mimic conditions with pre-synaptic complication (Lambert Eaton syndrome, motor neuron disorder, polyneuropathy) the intact nerve-muscle preparations were incubated at elevated extracellular Mg^2+, which is known to suppress release of ACh from nerve terminals of motor neurons.

The subject of experiment [2] is rat soleus muscles. The experiment can be described thus: Mg2+ concentration required to depress nerve-stimulated force by 50% (Kd,Mg2+), combination with 3,4-AP. It is filed as cell-based. To be noted: combination of C8 and 3,4-diaminopyridine; elevated extracellular Mg2+. The method, then:
FIGS. 6A-6E. […] Muscles from 4-week-old rats were stimulated to contract by activating the motor nerve with short duration pulses in field stimulation. Muscles contracted every 10 min for 2 s in response to 30 Hz stimulation. Four different experimental conditions were used. […] C) similar to A) but this muscle had been pre-incubated with 3,4-AP. […] The force integral (AUC) was determined at each extracellular Mg^2+ concentration. AUC was plotted against Mg^2+ concentration and the data was fitted to a sigmoidal function. This provided the extracellular Mg^2+ concentration that was required to reduce the nerve-stimulated force to 50% (Mg50) under the four different conditions (see Table 5).
While the use of tubocurarine mimics conditions with reduced neuromuscular transmission due to post-synaptic dysfunction (myasthenia gravis, neuromuscular blockade), the experiments with elevated extracellular Mg^2+ mimics conditions with pre-synaptic dysfunction akin to a range of neuromuscular disorders including Lambert Eaton syndrome, motor neuron disorders and polyneuropathy. […] Based on this it was determined whether recovery of nerve-stimulated force at elevated extracellular Mg^2+ with CIC-1 inhibiting compounds could be added to force recovery with 3,4-AP. […] To quantify the effect of compounds on Mg^2+ sensitivity the force at the different Mg^2+ concentrations was determined. […]

The subject of experiment [3] is rat soleus muscles. It is filed as cell-based. To be noted: 10 and 25 μM C8; 1 μM μ-conotoxin GiiiB; vs control conditions.
The subject of a further experiment is rats injected with MAB35. The experiment can be described thus: Rotarod running performance in passive myasthenia gravis induced in rats with MAB35 antibody. It is filed as in vivo, rat. To be noted: after stable reduction in performance by MAB35, vs sham. The method, then: FIG. 10. […] Prior to I.P. injection of MAB35 the animals had been familiarized to the rotarod over three training sessions distributed over two days. […] After this treatment performance was monitored every second hour. *Indicates significant different as evaluated using student t-test.
In both series of experiments, running performance was tested on a rotarod using a protocol where the rod was accelerated gradually over a 5 min period, and the running time and covered distance before falling off the rod were measured. […] Experiments with tubocurarine were carried out over two days, and on each day the effect of tubocurarine on running performance was tested. On the first day only tubocurarine was injected. […] On the second day, the animals were first allowed to run on the rotarod, and all animals performed normally. […] The allocation of the animals into the two groups (C8 or sham) was random and unknown to the experimenter (blinded experimental design).
In experiments with MAB35, animals were first familiarized with the rotarod over two consecutive days and then injected I.P. with MAB35. After injection, rotarod performance was then again monitored regularly over the consecutive two days. […] A considerable number of animals, however, became moribund failing to walk and they had altered ventilation (rapid) and pronounced ptosis. These animals were not included in experiments. […]
On the technique in general: In the rotarod test animals must keep their balance on a rotating rod.

For the compound `C[C@H](Oc1ccc(Br)cc1)C(=O)O` [Compound C8, (2S)-2-(4-bromophenoxy)propanoic acid], in experiment [1] (50 μM compound), the “50 μM % change after addition (AUC of nerve-stimulated force)” value stood at 13 ± 4%. Also, the “100 μM % change after addition (AUC of nerve-stimulated force)” value in experiment [1] (100 μM compound) is 26 ± 5%. Further, the “effect on recovery of neuromuscular transmission” value with rat soleus muscles [2] is “unexpected synergistic effect”. Besides, in the experiment on rat soleus muscles [3], the EPP amplitude entry was “significantly larger EPPs”. For the same compound, the entries for the “rotarod performance after injection” value with rats injected with MAB35 (C8 20 mg/kg) and in the experiment on rats injected with MAB35 (C8 30 mg/kg) were “decline was reduced” and “clear recovery of performance”, respectively.
